Source: US8524809B2, “Low odor compositions and methods to attain low odor compositions” (Rohm and Haas Company, priority 2010, dated 2013)

Columns and labels:
[1] = Nucleophilic reagents: aldehyde content in vinyl acetate-acrylic latex; conditions: Rovace 9900 pre-treated 1 week with 50 ppm N51032; reagent 50 ppm, 55° C. 2 hours, then 1 week RT
Experimental: The latex samples were first treated with a carboxylesterase enzyme (50 ppm of N51032) for 1 week to remove residual esters and also to convert residual vinyl acetate to acetaldehyde (the esterase produces vinyl alcohol, which rearranges to form acetaldehyde). Each sample was then stirred at 55° C. for 2 hours with the reagent shown below in Table 26 (added at a level of 50 ppm), and then left at room temperature for 1 week before evaluating levels of aldehyde in the headspace composition (GC-MS, 33° C.).

[2] = Esterase and nucleophilic reagent, larger scale vinyl acetate-acrylic latex; conditions: VAc-acrylic latex, 50 ppm N51032 + 50 ppm reagent
Experimental: The combined effect of carboxylesterase (50 ppm N51032) and nucleophilic reagent (50 ppm in each case) was evaluated in a larger scale vinyl acetate-acrylic latex sample, Table 27, below. The combined addition was made into a 1 gallon reaction vessel, with stirring, after the polymer synthesis and chase, and while the contents were at 50° C. The contents were then allowed to cool and headspace concentrations were analyzed after 1 day at room temperature, and after 5 days at room temperature.

[3] = NaBH4 treatment: headspace composition of acrylic latex AC261; conditions: 1 week, 500 ppm NaBH4 (with 60 ppm CALBL where combined)
Experimental: Headspace VOC content in aqueous compositions was determined by a method based on ASTM 3960: Standard Practice for Determining Volatile Organic Compound (VOC) Content of Paints and Related Coatings. This method uses static headspace sampling/GC-MS at 33° C. to determine the headspace concentrations of compounds above aqueous emulsion polymers or waterborne paints.
Weigh 5 g of each sample into 22 ml headspace vials with aluminum caps and crimp the cap tightly. Repeat the procedure with water blanks to be run, at a minimum, at the beginning and end of a sequence of samples. Analyze the samples via headspace GC-MS. Integrate all peaks in the resulting chromatogram that have a signal greater than five times the root-mean-square baseline noise. Once a satisfactory separation of the volatiles is achieved, mass spectral analysis and/or retention time matching against known compounds is used to identify the compounds detected. Determine the concentration of each calibrated compound in the sample headspace using the linear-least-squares equation from the calibration plot for that compound. Levels of the component in the headspace are reliable to 0.1 ppm by the GC-MS technique.

Row | SMILES | Acetaldehyde Headspace Concentration [1] [ppm] | Acetone Headspace Concentration [1] [ppm] | Ethanol Headspace Concentration [1] [ppm] | butanal Headspace Concentration [1] [ppm] | l-butanol Headspace Concentration [1] [ppm] | t-butanol Headspace Concentration [1] [ppm] | also measured
1 | NCCNCCNCCN [TET, triethylene tetramine] | 42 | 262 | 23 | 1 | 64 | 278 | 
2 | O=C1CC(=O)NC(=O)N1 [B, barbituric acid] | 0 | 287 | 26 | 0 | 53 | 300 | Acetaldehyde Headspace Concentration ([2]; 1 Day): 237 ppm; Acetone Headspace Concentration ([2]; 1 Day): 392 ppm; Butyl acetate Headspace Concentration ([2]; 1 Day): 1 ppm; Ethanol Headspace Concentration ([2]; 1 Day): 10 ppm; Vinyl acetate Headspace Concentration ([2]; 1 Day): 0 ppm; butanal Headspace Concentration ([2]; 1 Day): 0.4 ppm; l-butanol Headspace Concentration ([2]; 1 Day): 18 ppm; t-butanol Headspace Concentration ([2]; 1 Day): 265 ppm; Acetaldehyde Headspace Concentration ([2]; 5 Days): 140 ppm; Acetone Headspace Concentration ([2]; 5 Days): 418 ppm; Butyl acetate Headspace Concentration ([2]; 5 Days): 1 ppm; Ethanol Headspace Concentration ([2]; 5 Days): 23 ppm; Vinyl acetate Headspace Concentration ([2]; 5 Days): 0 ppm; butanal Headspace Concentration ([2]; 5 Days): 0.6 ppm; l-butanol Headspace Concentration ([2]; 5 Days): 21 ppm; t-butanol Headspace Concentration ([2]; 5 Days): 285 ppm
3 | Nc1ccc(CO)cc1 [4ABA, 4-aminobenzyl alcohol] | 151 | 245 | 20 | 1 | 48 | 257 | 
4 | NNc1ccc(C(=O)O)cc1 [4HB, 4-hydrazino benzoic acid] | 14 | 247 | 20 | 0 | 48 | 258 | 
5 | [BH4-].[Na+] [NaBH4, sodium borohydride] |  |  |  |  |  |  | Level of 2-butenoic acid, butyl ester in headspace [3]: 65 ppm; Level of 2-methyl-3-hexanone in headspace [3]: 0 ppm; Level of Acetone in headspace [3]: 0 ppm; Level of Butanal in headspace [3]: 0 ppm; Level of Isobutyraldehyde in headspace [3]: 0 ppm; Level of benzaldehyde in headspace [3]: 0 ppm; Level of butyl acetate in headspace [3]: 104 ppm; Level of butyl acrylate in headspace [3]: 67 ppm; Level of butyl propionate in headspace [3]: 207 ppm; Level of methyl isobutyrate in headspace [3]: 17 ppm
6 | Nc1ccc(N)cc1 [PPD, p-phenylene diamine] | 0 | 279 | 25 | 0 | 58 | 304 | 
